Test results from the OligoGym collection.
HELM strings list units from the 5' end as sugar, base in round brackets, then linkage (d deoxyribose, r ribose, m 2'-O-methyl, p phosphodiester). Strings are as the collection lists them; they lack the last nucleoside at the 3' end of the tested compound. [moe] = 2'-O-(2-methoxyethyl) (MOE); [sp] = phosphorothioate linkage; [m5C] = 5-methylcytosine

Biological target: PRNP
Assay: mouse, dose not given
Conditions: ASO

Row | Substance | 3 h FOB score
1 | RNA1{[moe](T)[sp].[moe](G)p.[moe]([m5C])p.[moe](A)p.[moe]([m5C])[sp].d(A)[sp].d([m5C])[sp].d(T)[sp].d(G)[sp].d(A)[sp].d([m5C])[sp].d([m5C])[sp].d(A)[sp].d(T)[sp].d(T)[sp].[moe](T)p.[moe](T)p.[moe](T)[sp].[moe](T)}$$$$ (last 3' nucleoside missing) | 1 score 0-7
2 | RNA1{[moe](T)[sp].[moe](G)p.[moe]([m5C])p.[moe](T)p.[moe](T)[sp].d(A)[sp].d(T)[sp].d(T)[sp].d(A)[sp].d(T)[sp].d(T)[sp].d([m5C])[sp].d(A)[sp].d(T)[sp].d(G)[sp].[moe](T)p.[moe](T)p.[moe]([m5C])[sp].[moe](T)}$$$$ (last 3' nucleoside missing) | 0 score 0-7
3 | RNA1{[moe](T)[sp].[moe](G)p.[moe]([m5C])p.[moe]([m5C])p.[moe](A)[sp].d([m5C])[sp].d(A)[sp].d(T)[sp].d(A)[sp].d(T)[sp].d(A)[sp].d(G)[sp].d(G)[sp].d(G)[sp].d(T)[sp].[moe]([m5C])p.[moe]([m5C])p.[moe](T)[sp].[moe](T)}$$$$ (last 3' nucleoside missing) | 3 score 0-7
4 | RNA1{[moe](T)[sp].[moe](T)p.[moe](A)p.[moe]([m5C])p.[moe](T)[sp].d([m5C])[sp].d(G)[sp].d(G)[sp].d([m5C])[sp].d(T)[sp].d(T)[sp].d(G)[sp].d(T)[sp].d(T)[sp].d([m5C])[sp].[moe]([m5C])p.[moe](A)p.[moe]([m5C])[sp].[moe](T)}$$$$ (last 3' nucleoside missing) | 2.5 score 0-7
5 | RNA1{[moe](T)[sp].[moe](T)p.[moe](G)p.[moe](T)p.[moe](G)[sp].d(A)[sp].d([m5C])[sp].d(A)[sp].d(A)[sp].d(T)[sp].d(A)[sp].d(T)[sp].d(T)[sp].d(T)[sp].d(A)[sp].[moe]([m5C])p.[moe](T)p.[moe]([m5C])[sp].[moe](T)}$$$$ (last 3' nucleoside missing) | 0 score 0-7
6 | RNA1{[moe](T)[sp].[moe](T)p.[moe](G)p.[moe]([m5C])p.[moe](A)[sp].d(G)[sp].d(G)[sp].d(T)[sp].d(A)[sp].d(A)[sp].d(G)[sp].d(T)[sp].d(T)[sp].d([m5C])[sp].d(T)[sp].[moe]([m5C])p.[moe](A)p.[moe](G)[sp].[moe](G)}$$$$ (last 3' nucleoside missing) | 5.25 score 0-7
7 | RNA1{[moe](T)[sp].[moe](T)p.[moe](T)p.[moe](A)p.[moe]([m5C])[sp].d(T)[sp].d(T)[sp].d(T)[sp].d(T)[sp].d([m5C])[sp].d(A)[sp].d(G)[sp].d([m5C])[sp].d(T)[sp].d(G)[sp].[moe]([m5C])p.[moe]([m5C])p.[moe](T)[sp].[moe](T)}$$$$ (last 3' nucleoside missing) | 6 score 0-7
8 | RNA1{[moe](T)[sp].[moe](T)p.[moe](T)p.[moe](G)p.[moe](A)[sp].d(T)[sp].d(T)[sp].d(T)[sp].d([m5C])[sp].d(A)[sp].d(A)[sp].d(G)[sp].d(T)[sp].d([m5C])[sp].d([m5C])[sp].[moe]([m5C])p.[moe](A)p.[moe](G)[sp].[moe](A)}$$$$ (last 3' nucleoside missing) | 2.25 score 0-7
9 | RNA1{[moe](T)[sp].[moe](T)p.[moe](T)p.[moe](G)p.[moe](G)[sp].d(A)[sp].d(G)[sp].d(G)[sp].d([m5C])[sp].d(T)[sp].d([m5C])[sp].d(T)[sp].d(T)[sp].d(T)[sp].d(T)[sp].[moe](A)p.[moe](G)p.[moe](G)[sp].[moe](T)}$$$$ (last 3' nucleoside missing) | 4 score 0-7
10 | RNA1{[moe](T)[sp].[moe](T)p.[moe](T)p.[moe](G)p.[moe]([m5C])[sp].d(T)[sp].d(G)[sp].d(T)[sp].d(T)[sp].d(A)[sp].d(T)[sp].d(A)[sp].d([m5C])[sp].d(T)[sp].d(T)[sp].[moe](T)p.[moe](T)p.[moe](A)[sp].[moe]([m5C])}$$$$ (last 3' nucleoside missing) | 1.25 score 0-7
11 | RNA1{[moe](T)[sp].[moe](T)p.[moe]([m5C])p.[moe](A)p.[moe](G)[sp].d(A)[sp].d(T)[sp].d(T)[sp].d(T)[sp].d(T)[sp].d(T)[sp].d([m5C])[sp].d(A)[sp].d([m5C])[sp].d(A)[sp].[moe](T)p.[moe](A)p.[moe](T)[sp].[moe](G)}$$$$ (last 3' nucleoside missing) | 1 score 0-7
12 | RNA1{[moe](T)[sp].[moe](T)p.[moe]([m5C])p.[moe]([m5C])p.[moe](A)[sp].d(G)[sp].d([m5C])[sp].d(T)[sp].d(T)[sp].d([m5C])[sp].d(T)[sp].d(T)[sp].d(A)[sp].d(A)[sp].d(T)[sp].[moe](G)p.[moe]([m5C])p.[moe](A)[sp].[moe](T)}$$$$ (last 3' nucleoside missing) | 0 score 0-7
13 | RNA1{[moe](T)[sp].[moe]([m5C])p.[moe](A)p.[moe](G)p.[moe](T)[sp].d(G)[sp].d(T)[sp].d(T)[sp].d(G)[sp].d(T)[sp].d(G)[sp].d(A)[sp].d([m5C])[sp].d(A)[sp].d(A)[sp].[moe](T)p.[moe](A)p.[moe](T)[sp].[moe](T)}$$$$ (last 3' nucleoside missing) | 4.25 score 0-7
14 | RNA1{[moe](T)[sp].[moe]([m5C])p.[moe](A)p.[moe](G)p.[moe](T)[sp].d(T)[sp].d(T)[sp].d(T)[sp].d(T)[sp].d([m5C])[sp].d([m5C])[sp].d([m5C])[sp].d([m5C])[sp].[moe](A)p.[moe]([m5C])p.[moe](A)[sp].[moe](T)}$$$$ (last 3' nucleoside missing) | 0 score 0-7
15 | RNA1{[moe](T)[sp].[moe]([m5C])p.[moe](A)p.[moe](G)p.[moe](T)p.d(T)[sp].d(T)[sp].d(T)[sp].d(T)[sp].d([m5C])[sp].d([m5C])[sp].d([m5C])[sp].d([m5C])[sp].d(A)[sp].[moe]([m5C])p.[moe](A)p.[moe](T)[sp].[moe](A)}$$$$ (last 3' nucleoside missing) | 0 score 0-7
16 | RNA1{[moe](T)[sp].[moe]([m5C])p.[moe](A)p.[moe](T)p.[moe](A)[sp].d(T)[sp].d(T)[sp].d(T)[sp].d([m5C])[sp].d(T)[sp].d(G)[sp].d(T)[sp].d([m5C])[sp].d(A)[sp].d(T)[sp].[moe]([m5C])p.[moe](T)p.[moe]([m5C])[sp].[moe]([m5C])}$$$$ (last 3' nucleoside missing) | 3 score 0-7
17 | RNA1{[moe](T)[sp].[moe]([m5C])p.[moe](A)p.[moe](T)p.[moe](A)p.d(A)[sp].d(T)[sp].d(T)[sp].d(T)[sp].d(T)[sp].d([m5C])[sp].d(T)[sp].d(T)[sp].d(A)[sp].[moe](G)p.[moe]([m5C])p.[moe](T)[sp].[moe](A)}$$$$ (last 3' nucleoside missing) | 0 score 0-7
18 | RNA1{[moe](T)[sp].[moe]([m5C])p.[moe](A)p.[moe](T)p.[moe]([m5C])[sp].d(A)[sp].d(T)[sp].d(T)[sp].d(T)[sp].d(T)[sp].d(G)[sp].d([m5C])[sp].d([m5C])[sp].d(A)[sp].d(T)[sp].[moe](T)p.[moe](T)p.[moe](A)[sp].[moe](T)}$$$$ (last 3' nucleoside missing) | 6 score 0-7
19 | RNA1{[moe](T)[sp].[moe]([m5C])p.[moe](A)p.[moe]([m5C])p.[moe](T)[sp].d(G)[sp].d(T)[sp].d(G)[sp].d(A)[sp].d(A)[sp].d(T)[sp].d(A)[sp].d(T)[sp].d(G)[sp].d(T)[sp].[moe]([m5C])p.[moe]([m5C])p.[moe](T)[sp].[moe]([m5C])}$$$$ (last 3' nucleoside missing) | 5 score 0-7
20 | RNA1{[moe](T)[sp].[moe]([m5C])p.[moe](G)p.[moe]([m5C])p.[moe]([m5C])[sp].d(A)[sp].d(T)[sp].d(A)[sp].d(A)[sp].d(T)[sp].d(G)[sp].d(A)[sp].d([m5C])[sp].d(T)[sp].d(G)[sp].[moe]([m5C])p.[moe](T)p.[moe]([m5C])[sp].[moe](T)}$$$$ (last 3' nucleoside missing) | 4.5 score 0-7
21 | RNA1{[moe](T)[sp].[moe]([m5C])p.[moe](T)p.[moe](A)p.[moe](T)[sp].d(G)[sp].d(T)[sp].d(T)[sp].d(T)[sp].d(T)[sp].d([m5C])[sp].d([m5C])[sp].d(A)[sp].[moe](G)p.[moe](T)p.[moe](G)[sp].[moe]([m5C])}$$$$ (last 3' nucleoside missing) | 0 score 0-7
22 | RNA1{[moe](T)[sp].[moe]([m5C])p.[moe](T)p.[moe](A)p.[moe](T)[sp].d(G)[sp].d(T)[sp].d(T)[sp].d(T)[sp].d(T)[sp].d([m5C])[sp].d([m5C])[sp].d(A)[sp].d(G)[sp].d(T)[sp].[moe](G)p.[moe]([m5C])p.[moe]([m5C])[sp].[moe]([m5C])}$$$$ (last 3' nucleoside missing) | 0 score 0-7
23 | RNA1{[moe](T)[sp].[moe]([m5C])p.[moe](T)p.[moe](A)p.[moe](T)p.d(G)[sp].d(T)[sp].d(T)[sp].d(T)[sp].d(T)[sp].d([m5C])[sp].d([m5C])[sp].d(A)[sp].d(G)[sp].[moe](T)[sp].[moe](G)p.[moe]([m5C])p.[moe]([m5C])}$$$$ (last 3' nucleoside missing) | 0 score 0-7
24 | RNA1{[moe](T)[sp].[moe]([m5C])p.[moe](T)p.[moe](A)p.[moe](T)p.d(G)[sp].d(T)[sp].d(T)[sp].d(T)[sp].d(T)[sp].d([m5C])[sp].d([m5C])[sp].d(A)[sp].d(G)[sp].[moe](T)p.[moe](G)p.[moe]([m5C])[sp].[moe]([m5C])}$$$$ (last 3' nucleoside missing) | 0 score 0-7
25 | RNA1{[moe](T)[sp].[moe]([m5C])p.[moe](T)p.[moe](A)p.d(T)[sp].d(G)[sp].d(T)[sp].d(T)[sp].d(T)[sp].d(T)[sp].d([m5C])[sp].d([m5C])[sp].d(A)[sp].d(G)[sp].[moe](T)p.[moe](G)p.[moe]([m5C])p.[moe]([m5C])[sp].[moe]([m5C])}$$$$ (last 3' nucleoside missing) | 1 score 0-7
26 | RNA1{[moe](T)[sp].[moe]([m5C])p.[moe](T)p.[moe](G)p.[moe](A)[sp].d(G)[sp].d(A)[sp].d(T)[sp].d(T)[sp].d(T)[sp].d(G)[sp].d(T)[sp].d(T)[sp].d(T)[sp].d(T)[sp].[moe](A)p.[moe](G)p.[moe]([m5C])[sp].[moe]([m5C])}$$$$ (last 3' nucleoside missing) | 3 score 0-7
